This assay has as its target Forkhead box protein O3 (Homo sapiens, UniProt O43524). The assay is described as follows: Induction of nuclear translocation of FOXO3 in human U2OS cells by inverted microscopic analysis.

pEC50: −log10 of the molar value.

Sequence of Forkhead box protein O3 (O43524 whole entry): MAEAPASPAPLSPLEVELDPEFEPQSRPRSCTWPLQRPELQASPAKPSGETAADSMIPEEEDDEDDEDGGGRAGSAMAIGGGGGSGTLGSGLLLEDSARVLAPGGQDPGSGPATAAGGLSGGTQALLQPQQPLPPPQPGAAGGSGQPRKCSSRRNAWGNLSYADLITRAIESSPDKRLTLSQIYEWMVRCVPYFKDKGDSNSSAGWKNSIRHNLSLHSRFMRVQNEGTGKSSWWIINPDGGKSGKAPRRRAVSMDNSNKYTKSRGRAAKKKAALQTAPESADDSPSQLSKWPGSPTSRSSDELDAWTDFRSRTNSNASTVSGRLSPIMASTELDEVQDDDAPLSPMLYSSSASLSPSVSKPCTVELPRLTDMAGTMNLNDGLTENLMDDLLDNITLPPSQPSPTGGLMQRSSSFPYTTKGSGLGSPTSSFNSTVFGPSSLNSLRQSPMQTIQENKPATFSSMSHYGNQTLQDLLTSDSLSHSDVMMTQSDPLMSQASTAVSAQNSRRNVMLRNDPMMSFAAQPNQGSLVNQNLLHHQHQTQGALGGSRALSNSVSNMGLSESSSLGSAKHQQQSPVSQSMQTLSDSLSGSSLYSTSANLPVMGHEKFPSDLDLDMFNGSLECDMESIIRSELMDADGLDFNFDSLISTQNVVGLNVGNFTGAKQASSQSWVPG

`COc1cc(/C=C/C(=O)N2CCC=CC2=O)cc(OC)c1OC` [CHEBI:8241]: the pEC50 – broadly, the negative decadic logarithm of the EC50, by convention in mol/L – was 4.42.

The values above are taken from BindingDB's records for PubMed 38436272 (Sorbonne University, 2024).
